What follows are compounds tested against T1, progesterone receptor (Homo sapiens, UniProt P06401) (assay: T47D alkaline phosphatase assay for progesterone receptor modulator (antagonist) activity). Conditions: T47D cells.
T1 sequence (P06401 1-933): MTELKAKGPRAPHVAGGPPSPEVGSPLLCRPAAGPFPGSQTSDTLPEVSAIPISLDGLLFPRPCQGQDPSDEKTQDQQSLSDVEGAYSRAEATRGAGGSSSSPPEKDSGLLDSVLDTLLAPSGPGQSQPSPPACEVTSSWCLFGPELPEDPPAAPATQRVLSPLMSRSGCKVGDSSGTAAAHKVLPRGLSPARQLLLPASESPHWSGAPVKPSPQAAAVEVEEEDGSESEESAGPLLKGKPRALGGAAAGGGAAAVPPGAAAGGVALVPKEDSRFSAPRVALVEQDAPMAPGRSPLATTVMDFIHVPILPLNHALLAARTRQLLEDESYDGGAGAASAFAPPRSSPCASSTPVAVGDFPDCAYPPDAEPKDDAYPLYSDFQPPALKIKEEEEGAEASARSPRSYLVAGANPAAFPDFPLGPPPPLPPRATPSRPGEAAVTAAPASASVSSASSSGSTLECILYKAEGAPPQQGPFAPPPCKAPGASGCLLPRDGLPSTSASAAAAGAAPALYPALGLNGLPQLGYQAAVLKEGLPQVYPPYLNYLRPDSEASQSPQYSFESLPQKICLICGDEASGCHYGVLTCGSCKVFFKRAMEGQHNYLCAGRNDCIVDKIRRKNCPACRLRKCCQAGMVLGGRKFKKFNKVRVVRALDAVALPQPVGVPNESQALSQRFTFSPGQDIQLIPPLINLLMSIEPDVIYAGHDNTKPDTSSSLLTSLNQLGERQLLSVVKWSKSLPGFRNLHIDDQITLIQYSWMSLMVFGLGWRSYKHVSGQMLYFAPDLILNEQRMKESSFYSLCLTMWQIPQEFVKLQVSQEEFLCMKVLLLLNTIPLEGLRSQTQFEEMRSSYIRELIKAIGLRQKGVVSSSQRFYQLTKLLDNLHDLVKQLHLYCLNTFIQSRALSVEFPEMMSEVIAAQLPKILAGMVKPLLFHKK
Type: cell-based
Design: endogenous in cells; host or cells: T47D cells
Method: An assay was performed to identify compounds having progesterone receptor modulator activity. This assay identifies progestins or antiprogestins by determining a compound's effect on alkaline phosphatase activity in T47D cells.
Culture medium: DMEM:F12 (1:1) (GIBCO, BRL) supplemented with 5% (v/v) charcoal stripped fetal bovine serum (not heat-inactivated), 100 U/mL penicillin, 100 μg/mL streptomycin, and 2 mM the GlutaMax® reagent (GIBCO, BRL).
Alkaline phosphatase assay buffer: • I. 0.1M Tris-HCl, pH 9.8, containing 0.2% the Triton™ X-100 reagent • II. 0.1M Tris-HCl, pH 9.8, containing 4 mM p-nitrophenyl phosphate (Sigma).
Frozen T47D cells are thawed in a 37° C. water bath and diluted to 280,000 cells/mL in culture medium. To each well in a 96-well plate (Falcon, Becton Dickinson Labware), 180 μL of diluted cell suspension is added.
Twenty μL of reference or test compounds diluted in the culture medium is then added to each well. When testing for progestin antagonist activity, reference antiprogestins or test compounds are added in the presence of 1 nM progesterone. The cells are incubated at 37° C. in a 5% CO2/humidified atmosphere for 24 hours.
For high throughput screening, one concentration of each compound will be tested at 0.3 μg/mL. Based on an average molecular weight of 300 g/mol for the compounds in the library, the concentration is approximately 1 μM. Subsequently, active compounds will be tested in dose response assays to determine EC50 and IC50.
At the end of treatment, the medium is removed from the plate. Fifty μL of assay buffer I is added to each well. The plates are shaken in a titer plate shaker for 15 minutes. Then 150 μL of assay buffer II is added to each well. Optical density measurements are taken at 5 minute intervals for 30 minutes at a test wavelength of 405 nm.
Analysis of dose-response data. For reference and test compounds, a dose response curve is generated for dose (x-axis) vs. the rate of enzyme reaction (slope) (y-axis). Square root-transformed data are used for analysis of variance and nonlinear dose response curve fitting for both agonist and antagonist modes. Huber weighting is used to down-weight the effects of outliers. EC50 or IC50 values are calculated from the retransformed values. The JMP® software (SAS Institute, Inc.) is used for both one-way analysis of variance and non-linear dose response analysis in both single dose and dose response studies.
Progesterone and trimegestone are reference progestins and RU486 is the reference antiprogestin. All reference compounds are run in full dose response curves and the EC50 and IC50 values are calculated.
In the table provided above, the IC50 values show the relative progesterone receptor antagonist activity in this assay. Lower numbers are indicative of higher potency, i.e., greater PR antagonist activity. Further, the assay has a standard deviation of about ±6.

Row | Active Dose [µM] | Structure (SMILES)
1 | 3 | CCS(=O)(=O)Nc1ccc(-c2ccc(C#N)n2CCCc2ccccc2)cc1 [Example 71, N-{4-[5-cyano-1-(3-phenylpropyl)-1H-pyrrol-2-yl]phenyl}ethanesulfonamide]
2 | 10 | CCS(=O)(=O)Nc1ccc(-c2ccc(C#N)n2C)c(F)c1 [Example 41, N-[4-(5-cyano-1-methyl-1H-pyrrol-2-yl)-3-fluorophenyl]ethanesulfonamide]
3 | 10 | Cn1c(C#N)ccc1-c1cc(F)c(NS(C)(=O)=O)cc1F [Example 46, N-[4-(5-cyano-1-methyl-1H-pyrrol-2-yl)-2,5-difluorophenyl]-methane-sulfonamide]

Same assay, conditions: T47D cells, antagonist mode in the presence of 1 nM progesterone, 24 hours

Row | Structure (SMILES) | IC50 [µM]
4 | CCCCn1c(C#N)ccc1-c1ccc(NS(=O)(=O)CC)cc1 [Example 68, N-[4-(1-butyl-5-cyano-1H-pyrrol-2-yl)phenyl]ethanesulfonamide] | 0.546
5 | Cn1c(C#N)ccc1-c1ccc(NC(=O)C2CCCCC2)cc1 [Example 11, N-[4-(5-cyano-1-methyl-1H-pyrrol-2-yl)phenyl]cyclohexane-carboxamide] | 0.325
6 | CCCCS(=O)(=O)Nc1ccc(-c2ccc(C#N)n2C)cc1 [Example 18, N-[4-(5-cyano-1-methyl-1H-pyrrol-2-yl)phenyl]butane-1-sulfonamide] | ~0.3
7 | CC(C)S(=O)(=O)Nc1cc(F)c(-c2ccc(C#N)n2C)cc1F [Example 50, N-[4-(5-cyano-1-methyl-1H-pyrrol-2-yl)-2,5-difluorophenyl]propane-2-sulfonamide] | 0.231
8 | CCc1cc(-c2ccc(C#N)n2C)ccc1NC#N [Example 30, [4-(5-cyano-1-methyl-1H-pyrrol-2-yl)-2-ethylphenyl]cyanamide] | ~0.3
9 | COc1cc(NC#N)ccc1-c1ccc(C#N)n1C [Example 36, [4-(5-cyano-1-methyl-1H-pyrrol-2-yl)-3-methoxyphenyl]cyanamide] | 0.0839
10 | CCn1c(C#N)ccc1-c1ccc(NS(=O)(=O)CC)cc1 [Example 66, N-[4-(5-cyano-1-ethyl-1H-pyrrol-2-yl)phenyl]ethanesulfonamide] | 0.0841
11 | Cn1c(C#N)ccc1-c1ccc(N2CCCS2(=O)=O)cc1 [Example 57, 5-[4-(1,1-dioxidoisothiazolidin-2-yl)phenyl]-1-methyl-1H-pyrrole-2-carbonitrile] | 0.18
12 | Cn1c(C#N)ccc1-c1ccc(NC(=O)Nc2ccc(-c3ccc(C#N)n3C)cc2)cc1 [Example 15, N,N′-bis[4-(5-cyano-1-methyl-1H-pyrrol-2-yl)phenyl]urea] | 0.642
13 | C=CCn1c(C#N)ccc1-c1ccc(NS(=O)(=O)CC)cc1 [Example 69, N-[4-(1-allyl-5-cyano-1H-pyrrol-2-yl)phenyl]ethanesulfonamide] | 0.6
14 | CCCS(=O)(=O)Nc1ccc(-c2ccc(C#N)n2C)c(C#N)c1 [Example 76, N-[3-cyano-4-(5-cyano-1-methyl-1H-pyrrol-2-yl)phenyl]propane-1-sulfonamide] | 0.0868
15 | Cn1c(C#N)ccc1-c1ccc(NC(=O)c2ccco2)cc1 [Example 3, N-[4-(5-cyano-1-methyl-1H-pyrrol-2-yl)phenyl]-2-furamide] | 0.126
16 | C#CCn1c(C#N)ccc1-c1ccc(NS(=O)(=O)CC)cc1 [Example 70, N-[4-(5-cyano-1-prop-2-yn-1-yl-1H-pyrrol-2-yl)phenyl]ethanesulfonamide] | 0.797
17 | CCCc1cc(-c2ccc(C#N)n2C)ccc1NC#N [Example 31, [4-(5-cyano-1-methyl-1H-pyrrol-2-yl)-2-propylphenyl] cyanamide] | < 0.3

Second part, the compound after the results:

Row | IC50 [µM] | Structure (SMILES)
18 | 0.0035 | CCCS(=O)(=O)Nc1ccc(-c2ccc(C#N)n2C)c(F)c1 [Example 42, N-[4-(5-cyano-1-methyl-1H-pyrrol-2-yl)-3-fluorophenyl]propane-1-sulfonamide]
19 | 0.0086 | CCCCS(=O)(=O)Nc1cc(F)c(-c2ccc(C#N)n2C)c(F)c1 [Example 82, N-[4-(5-cyano-1-methyl-1H-pyrrol-2-yl)-3,5-difluorophenyl]butane-1-sulfonamide]
20 | ~0.03 | Cn1c(C#N)ccc1-c1ccc(NS(=O)(=O)c2ccccc2)cc1 [Example 21, N-[4-(5-cyano-1-methyl-1H-pyrrol-2-yl)phenyl]benzenesulfonamide]
21 | 0.0252 | CC(C)S(=O)(=O)Nc1ccc(-c2ccc(C#N)n2C)c(C(F)(F)F)c1 [Example 56, N-[4-(5-cyano-1-methyl-1H-pyrrol-2-yl)-3-(trifluoromethyl)phenyl]propane-2-sulfonamide]
22 | 0.0082 | Cn1c(C#N)ccc1-c1ccc(NS(C)(=O)=O)cc1 [Example 25, N-[4-(5-cyano-1-methyl-1H-pyrrol-2-yl)phenyl]methanesulfonamide]
23 | 0.0038 | CCS(=O)(=O)Nc1ccc(-c2ccc(C#N)n2C)c(F)c1 [Example 41, N-[4-(5-cyano-1-methyl-1H-pyrrol-2-yl)-3-fluorophenyl]ethanesulfonamide]
24 | 0.0062 | CCCS(=O)(=O)Nc1cc(F)c(-c2ccc(C#N)n2C)c(F)c1 [Example 81, N-[4-(5-cyano-1-methyl-1H-pyrrol-2-yl)-3,5-difluorophenyl]propane-1-sulfonamide]
25 | 0.0066 | CCCCS(=O)(=O)Nc1ccc(-c2ccc(C#N)n2C)c(F)c1 [Example 43, N-[4-(5-cyano-1-methyl-1H-pyrrol-2-yl)-3-fluorophenyl]butane-1-sulfonamide]
26 | 0.0398 | Cn1c(C#N)ccc1-c1cc(F)c(NS(C)(=O)=O)cc1F [Example 46, N-[4-(5-cyano-1-methyl-1H-pyrrol-2-yl)-2,5-difluorophenyl]-methane-sulfonamide]
27 | 0.0102 | CCS(=O)(=O)Nc1ccc(-c2ccc(C#N)n2C)c(C(F)(F)F)c1 [Example 53, N-[4-(5-cyano-1-methyl-1H-pyrrol-2-yl)-3-(trifluoromethyl)phenyl]ethane-sulfonamide]
28 | 0.0098 | CCCS(=O)(=O)Nc1ccc(-c2ccc(C#N)n2C)cc1 [Example 16, N-[4-(5-cyano-1-methyl-1H-pyrrol-2-yl)phenyl]propane-1-sulfonamide]
29 | 0.0407 | CCCS(=O)(=O)Nc1ccc(-c2ccc(C#N)n2C)cc1OC(F)(F)F [Example 61, N-[4-(5-cyano-1-methyl-1H-pyrrol-2-yl)-2-(trifluoromethoxy)phenyl]propane-1-sulfonamide]
30 | 0.0584 | Cn1c(C#N)ccc1-c1ccc(NS(=O)(=O)CC(F)(F)F)cc1 [Example 19, N-[4-(5-cyano-1-methyl-1H-pyrrol-2-yl)phenyl]-2,2,2-trifluoroethanesulfonamide]
31 | 0.019 | CCS(=O)(=O)Nc1cc(F)c(-c2ccc(C#N)n2C)c(F)c1 [Example 80, N-[4-(5-cyano-1-methyl-1H-pyrrol-2-yl)-3,5-difluorophenyl]ethane-sulfonamide]
32 | 0.0686 | CCS(=O)(=O)Nc1ccc(-c2ccc(C#N)[nH]2)cc1 [Example 65, N-[4-(5-cyano-1H-pyrrol-2-yl)phenyl]ethanesulfonamide]
33 | 0.0541 | Cn1c(C#N)ccc1-c1ccc(NC#N)cc1 [Example 28, [4-(5-cyano-1-methyl-1H-pyrrol-2-yl)-phenyl]cyanamide]

Same assay, conditions: T47D cells, at Active Dose 3000 nM

Row | inhibition at 3 µM [%] | Structure (SMILES)
34 | 15 | CCS(=O)(=O)Nc1ccc(-c2ccc(C#N)n2CCCc2ccccc2)cc1 [Example 71, N-{4-[5-cyano-1-(3-phenylpropyl)-1H-pyrrol-2-yl]phenyl}ethanesulfonamide]

Same assay, conditions: T47D cells, in the presence of 1 nM progesterone

Row | Antagonist Efficacy [%] | Structure (SMILES)
35 | 80 | CCn1c(C#N)ccc1-c1ccc(NS(=O)(=O)CC)cc1 [Example 66, N-[4-(5-cyano-1-ethyl-1H-pyrrol-2-yl)phenyl]ethanesulfonamide]
36 | 85 | CCS(=O)(=O)Nc1ccc(-c2ccc(C#N)[nH]2)cc1 [Example 65, N-[4-(5-cyano-1H-pyrrol-2-yl)phenyl]ethanesulfonamide]
